Test results published in patent US10231954B2, “Neurodegenerative therapies” (LYTIX BIOPHARMA AS, priority 2014, dated 2019).

What was measured:
Format in all cases: biochemical
[1] = biological target: MKK1 (Homo sapiens, UniProt Q02750); assay: Kinase profiling MKK1; conditions: for residual kinase activity, MKK1: 100 micromolar inhibitor concentration, 100 is no change
Source text: (§1) Any value less that 25 is considered to be highly significant inhibition.

[2] = biological target: p38a MAPK (Homo sapiens, UniProt Q16539); assay: Kinase profiling p38a MAPK; conditions: for residual kinase activity, p38a MAPK: 100 micromolar inhibitor concentration, 100 is no change
Source text: as §1

[3] = biological target: PKA (Homo sapiens, UniProt P17612); assay: Kinase profiling PKA; conditions: for residual kinase activity, PKA: 100 micromolar inhibitor concentration, 100 is no change
Source text: as §1

[4] = biological target: ROCK 2 (Homo sapiens, UniProt O75116); assay: Kinase profiling ROCK 2; conditions: for residual kinase activity, ROCK 2: 100 micromolar inhibitor concentration, 100 is no change
Source text: as §1

[5] = biological target: PRK2 (Homo sapiens, UniProt Q16513); assay: Kinase profiling PRK2; conditions: for residual kinase activity, PRK2: 100 micromolar inhibitor concentration, 100 is no change
Source text: as §1

[6] = biological target: PKCa (Homo sapiens, UniProt P17252); assay: Kinase profiling PKCa; conditions: for residual kinase activity, PKCa: 100 micromolar inhibitor concentration, 100 is no change
Source text: as §1

[7] = biological target: CAMKKb (Homo sapiens, UniProt Q96RR4); assay: Kinase profiling CAMKKb; conditions: for residual kinase activity, CAMKKb: 100 micromolar inhibitor concentration, 100 is no change
Source text: as §1

[8] = biological target: SmMLCK (Homo sapiens, UniProt Q15746); assay: Kinase profiling SmMLCK; conditions: 100 micromolar inhibitor concentration, 100 is no change
[9] = biological target: MARK3 (Homo sapiens, UniProt P27448); assay: Kinase profiling MARK3; conditions: for residual kinase activity, MARK3: 100 micromolar inhibitor concentration, 100 is no change
Source text: as §1

[10] = biological target: T1, TBK1 (Homo sapiens, UniProt Q9UHD2); assay: Kinase profiling TBK1; conditions: for residual kinase activity, TBK1: 100 micromolar inhibitor concentration, 100 is no change
T1 sequence (Q9UHD2 1-729): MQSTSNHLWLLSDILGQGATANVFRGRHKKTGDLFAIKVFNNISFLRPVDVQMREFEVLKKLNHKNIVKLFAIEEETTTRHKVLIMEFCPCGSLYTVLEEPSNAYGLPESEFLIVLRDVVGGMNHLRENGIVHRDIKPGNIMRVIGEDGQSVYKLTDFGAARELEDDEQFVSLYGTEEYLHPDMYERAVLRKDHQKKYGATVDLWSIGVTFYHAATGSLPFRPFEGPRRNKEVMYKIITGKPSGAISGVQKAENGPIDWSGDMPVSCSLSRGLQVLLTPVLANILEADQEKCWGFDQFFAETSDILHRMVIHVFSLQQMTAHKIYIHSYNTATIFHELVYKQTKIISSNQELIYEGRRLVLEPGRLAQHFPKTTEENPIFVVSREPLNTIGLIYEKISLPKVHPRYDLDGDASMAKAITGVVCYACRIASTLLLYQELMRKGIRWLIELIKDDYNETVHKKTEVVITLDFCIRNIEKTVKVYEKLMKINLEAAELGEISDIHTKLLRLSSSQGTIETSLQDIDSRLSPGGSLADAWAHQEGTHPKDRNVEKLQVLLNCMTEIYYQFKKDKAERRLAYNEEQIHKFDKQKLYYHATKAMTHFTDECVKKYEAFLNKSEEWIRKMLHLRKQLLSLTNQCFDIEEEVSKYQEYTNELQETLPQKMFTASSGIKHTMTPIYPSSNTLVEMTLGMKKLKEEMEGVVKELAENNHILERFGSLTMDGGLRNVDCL
Source text: as §1

[11] = biological target: PAK4 (Homo sapiens, UniProt O96013); assay: Kinase profiling PAK4; conditions: for residual kinase activity, PAK4: 100 micromolar inhibitor concentration, 100 is no change
Source text: as §1

[12] = biological target: Src (Homo sapiens, UniProt P12931); assay: Kinase profiling Src; conditions: for residual kinase activity, Src: 100 micromolar inhibitor concentration, 100 is no change
Source text: as §1

[13] = biological target: Lck (Homo sapiens, UniProt P06239); assay: Kinase profiling Lck; conditions: for residual kinase activity, Lck: 100 micromolar inhibitor concentration, 100 is no change
Source text: as §1

[14] = biological target: SYK (Homo sapiens, UniProt P43405); assay: Kinase profiling SYK; conditions: for residual kinase activity, SYK: 100 micromolar inhibitor concentration, 100 is no change
Source text: as §1

[15] = biological target: IGF-1R (Homo sapiens, UniProt P08069); assay: Kinase profiling IGF-1R; conditions: for residual kinase activity, IGF-1R: 100 micromolar inhibitor concentration, 100 is no change
Source text: as §1

[16] = tested on: VEG-FR; assay: Kinase profiling VEG-FR; conditions: 100 micromolar inhibitor concentration; 100 is no change
Source text: as §1

Chain of p38a MAPK (Q16539 whole entry): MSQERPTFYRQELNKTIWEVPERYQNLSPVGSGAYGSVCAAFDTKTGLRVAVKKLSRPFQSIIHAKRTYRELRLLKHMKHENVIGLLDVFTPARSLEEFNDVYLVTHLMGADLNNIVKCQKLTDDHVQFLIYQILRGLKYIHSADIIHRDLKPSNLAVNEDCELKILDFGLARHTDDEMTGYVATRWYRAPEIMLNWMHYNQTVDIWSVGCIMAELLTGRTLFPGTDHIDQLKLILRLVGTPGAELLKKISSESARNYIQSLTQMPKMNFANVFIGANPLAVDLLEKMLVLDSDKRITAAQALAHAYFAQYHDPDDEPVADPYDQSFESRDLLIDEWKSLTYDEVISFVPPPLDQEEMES
Chain of SmMLCK (Q15746 923-1914): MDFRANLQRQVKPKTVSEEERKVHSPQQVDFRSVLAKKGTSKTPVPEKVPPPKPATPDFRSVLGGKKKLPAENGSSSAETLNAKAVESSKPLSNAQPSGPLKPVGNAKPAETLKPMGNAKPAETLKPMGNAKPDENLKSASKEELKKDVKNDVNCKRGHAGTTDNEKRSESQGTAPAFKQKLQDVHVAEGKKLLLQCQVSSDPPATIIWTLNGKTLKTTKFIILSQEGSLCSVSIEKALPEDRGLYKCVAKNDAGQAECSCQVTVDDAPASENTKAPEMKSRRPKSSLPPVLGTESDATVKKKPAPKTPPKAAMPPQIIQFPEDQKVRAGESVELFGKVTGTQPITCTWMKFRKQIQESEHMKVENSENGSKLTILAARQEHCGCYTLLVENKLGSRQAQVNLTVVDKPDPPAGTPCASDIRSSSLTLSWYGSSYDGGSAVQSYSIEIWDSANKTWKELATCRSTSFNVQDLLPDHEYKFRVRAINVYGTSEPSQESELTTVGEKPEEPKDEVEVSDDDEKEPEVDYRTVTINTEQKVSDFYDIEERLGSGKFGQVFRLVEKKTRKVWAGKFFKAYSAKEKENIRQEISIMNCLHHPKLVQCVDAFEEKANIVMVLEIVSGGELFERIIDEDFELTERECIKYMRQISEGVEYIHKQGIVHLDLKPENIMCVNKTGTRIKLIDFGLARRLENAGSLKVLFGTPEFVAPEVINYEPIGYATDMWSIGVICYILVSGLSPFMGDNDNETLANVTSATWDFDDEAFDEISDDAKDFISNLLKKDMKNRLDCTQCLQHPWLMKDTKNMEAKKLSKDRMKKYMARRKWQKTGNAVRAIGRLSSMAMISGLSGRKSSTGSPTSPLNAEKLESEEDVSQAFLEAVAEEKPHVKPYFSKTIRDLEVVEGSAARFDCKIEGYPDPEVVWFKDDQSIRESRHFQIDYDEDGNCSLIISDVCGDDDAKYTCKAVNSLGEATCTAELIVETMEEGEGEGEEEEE
Chain of PRK2 (Q16513 whole entry, species assumed): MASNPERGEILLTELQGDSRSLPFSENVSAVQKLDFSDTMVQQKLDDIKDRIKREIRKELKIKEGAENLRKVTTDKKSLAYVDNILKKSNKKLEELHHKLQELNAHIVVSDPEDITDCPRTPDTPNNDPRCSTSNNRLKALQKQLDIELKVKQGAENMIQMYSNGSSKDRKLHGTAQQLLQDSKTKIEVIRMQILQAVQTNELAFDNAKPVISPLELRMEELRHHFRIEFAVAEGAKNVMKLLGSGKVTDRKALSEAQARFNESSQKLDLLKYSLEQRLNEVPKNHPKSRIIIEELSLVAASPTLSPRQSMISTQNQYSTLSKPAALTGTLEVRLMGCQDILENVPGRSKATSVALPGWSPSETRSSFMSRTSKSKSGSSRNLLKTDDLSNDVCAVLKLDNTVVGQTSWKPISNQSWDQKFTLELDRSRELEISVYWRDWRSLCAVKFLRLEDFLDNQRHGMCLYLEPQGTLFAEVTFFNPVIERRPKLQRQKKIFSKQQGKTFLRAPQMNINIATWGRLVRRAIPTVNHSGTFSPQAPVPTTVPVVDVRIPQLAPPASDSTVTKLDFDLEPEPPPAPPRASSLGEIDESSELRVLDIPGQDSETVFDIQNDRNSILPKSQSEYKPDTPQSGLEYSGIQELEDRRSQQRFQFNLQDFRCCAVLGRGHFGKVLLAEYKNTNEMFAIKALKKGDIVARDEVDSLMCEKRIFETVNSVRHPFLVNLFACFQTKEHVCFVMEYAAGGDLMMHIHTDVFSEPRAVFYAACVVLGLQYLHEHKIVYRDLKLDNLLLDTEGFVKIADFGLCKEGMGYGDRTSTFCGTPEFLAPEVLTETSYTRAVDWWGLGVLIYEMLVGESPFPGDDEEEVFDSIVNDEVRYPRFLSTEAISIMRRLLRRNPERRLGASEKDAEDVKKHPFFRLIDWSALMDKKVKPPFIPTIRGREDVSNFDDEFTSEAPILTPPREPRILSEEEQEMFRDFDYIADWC
Chain of Lck (P06239 whole entry, species assumed): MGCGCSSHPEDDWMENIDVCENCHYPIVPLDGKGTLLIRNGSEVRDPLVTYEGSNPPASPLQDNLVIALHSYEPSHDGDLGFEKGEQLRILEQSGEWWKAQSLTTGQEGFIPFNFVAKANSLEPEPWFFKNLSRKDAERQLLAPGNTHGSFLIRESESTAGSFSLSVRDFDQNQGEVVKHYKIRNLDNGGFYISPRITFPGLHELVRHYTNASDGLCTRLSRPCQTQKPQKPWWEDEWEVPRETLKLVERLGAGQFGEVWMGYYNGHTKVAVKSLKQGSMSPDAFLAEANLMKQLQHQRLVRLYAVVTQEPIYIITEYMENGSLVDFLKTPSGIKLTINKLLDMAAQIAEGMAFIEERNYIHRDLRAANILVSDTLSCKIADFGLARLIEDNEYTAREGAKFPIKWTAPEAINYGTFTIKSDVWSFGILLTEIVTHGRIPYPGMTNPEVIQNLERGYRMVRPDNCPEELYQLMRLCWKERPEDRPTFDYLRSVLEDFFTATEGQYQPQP
Chain of ROCK 2 (O75116 whole entry, species assumed): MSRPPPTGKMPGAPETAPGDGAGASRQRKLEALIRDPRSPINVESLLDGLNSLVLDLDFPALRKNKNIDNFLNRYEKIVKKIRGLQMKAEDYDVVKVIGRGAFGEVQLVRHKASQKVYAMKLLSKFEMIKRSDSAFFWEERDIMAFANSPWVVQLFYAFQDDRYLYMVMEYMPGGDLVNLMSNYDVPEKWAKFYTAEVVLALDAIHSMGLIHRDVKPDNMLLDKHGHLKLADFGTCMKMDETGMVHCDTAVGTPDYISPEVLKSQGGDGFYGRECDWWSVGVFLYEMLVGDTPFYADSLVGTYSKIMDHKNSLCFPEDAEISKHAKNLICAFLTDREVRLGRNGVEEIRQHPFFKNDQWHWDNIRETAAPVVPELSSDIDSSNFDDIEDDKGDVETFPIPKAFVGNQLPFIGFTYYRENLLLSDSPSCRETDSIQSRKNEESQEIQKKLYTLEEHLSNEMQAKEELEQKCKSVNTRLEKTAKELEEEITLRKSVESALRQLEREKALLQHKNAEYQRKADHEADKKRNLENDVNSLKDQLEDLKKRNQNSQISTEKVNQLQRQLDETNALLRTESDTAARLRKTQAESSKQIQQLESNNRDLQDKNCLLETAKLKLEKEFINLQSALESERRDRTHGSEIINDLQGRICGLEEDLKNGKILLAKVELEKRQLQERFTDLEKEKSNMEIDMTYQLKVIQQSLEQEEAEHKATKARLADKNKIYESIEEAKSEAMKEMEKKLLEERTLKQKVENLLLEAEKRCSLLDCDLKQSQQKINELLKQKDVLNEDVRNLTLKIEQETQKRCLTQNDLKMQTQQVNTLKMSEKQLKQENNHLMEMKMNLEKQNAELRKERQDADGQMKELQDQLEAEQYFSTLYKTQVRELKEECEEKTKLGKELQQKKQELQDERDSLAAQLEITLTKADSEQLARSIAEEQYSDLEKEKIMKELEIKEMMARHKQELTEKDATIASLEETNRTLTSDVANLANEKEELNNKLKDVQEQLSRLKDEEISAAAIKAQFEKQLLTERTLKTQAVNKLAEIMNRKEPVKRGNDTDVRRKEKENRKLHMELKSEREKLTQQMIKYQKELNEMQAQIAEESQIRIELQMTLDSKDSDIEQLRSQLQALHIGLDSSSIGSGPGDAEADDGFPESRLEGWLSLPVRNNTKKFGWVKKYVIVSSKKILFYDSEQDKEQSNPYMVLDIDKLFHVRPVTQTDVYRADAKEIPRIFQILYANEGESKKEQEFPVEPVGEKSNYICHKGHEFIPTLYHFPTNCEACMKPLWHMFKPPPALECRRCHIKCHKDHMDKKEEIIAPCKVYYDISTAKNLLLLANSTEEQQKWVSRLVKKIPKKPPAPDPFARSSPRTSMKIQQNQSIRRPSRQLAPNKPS

| Compound | residual kinase activity, MKK1 [1] | residual kinase activity, p38a MAPK [2] | residual kinase activity, PKA [3] | residual kinase activity, ROCK 2 [4] | residual kinase activity, PRK2 [5] | residual kinase activity, PKCa [6] | residual kinase activity, CAMKKb [7] | residual kinase activity, SmMLCK [8] | residual kinase activity, MARK3 [9] | residual kinase activity, TBK1 [10] | residual kinase activity, PAK4 [11] | residual kinase activity, Src [12] | residual kinase activity, Lck [13] | residual kinase activity, SYK [14] | residual kinase activity, IGF-1R [15] | residual kinase activity, VEG-FR [16] | further results |
| --- | --- | --- | --- | --- | --- | --- | --- | --- | --- | --- | --- | --- | --- | --- | --- | --- | --- |
| O=C(Nc1nc2cc(O)ccc2s1)c1ccccc1 [Compound 03-102] | 52 | 57 | 93 | 47 | 68 | 72 | 32 | 15 | 63 | 66 | 67 | 30 | 98 | 80 | 52 | 11 |  |
| COC(=O)c1cccc(C(=O)Nc2nc3ccc(C(F)(F)F)cc3s2)c1 [Compound 03-105, Methyl 3-((6-(trifluoromethyl)benzo[d]thiazol-2-yl)carbamoyl)benzoate] |  |  |  |  |  |  |  |  |  |  |  |  |  |  |  | 29 | remaining activity at 100 µM ([1]; read-out: residual kinase activity, MKK1): 86%; remaining activity at 100 µM ([2]; read-out: residual kinase activity, p38a MAPK): 84%; remaining activity at 100 µM ([3]; read-out: residual kinase activity, PKA): 96%; remaining activity at 100 µM ([4]; read-out: residual kinase activity, ROCK 2): 103%; remaining activity at 100 µM ([5]; read-out: residual kinase activity, PRK2): 109%; remaining activity at 100 µM ([6]; read-out: residual kinase activity, PKCa): 96%; remaining activity at 100 µM ([7]; read-out: residual kinase activity, CAMKKb): 48%; remaining activity at 100 µM ([8]; read-out: residual kinase activity, SmMLCK): 63%; remaining activity at 100 µM ([9]; read-out: residual kinase activity, MARK3): 103%; remaining activity at 100 µM ([10]; read-out: residual kinase activity, TBK1): 101%; remaining activity at 100 µM ([11]; read-out: residual kinase activity, PAK4): 89%; remaining activity at 100 µM ([12]; read-out: residual kinase activity, Src): 165%; remaining activity at 100 µM ([13]; read-out: residual kinase activity, Lck): 99%; remaining activity at 100 µM ([14]; read-out: residual kinase activity, SYK): 102%; remaining activity at 100 µM ([15]; read-out: residual kinase activity, IGF-1R): 101% |
| N#Cc1ccc2nc(NC(=O)c3ccccc3)sc2c1 [Compound 03-106] | 58 | 60 | 91 | 125 | 105 | 100 | 67 | 94 | 98 | 94 | 94 | 85 | 95 | 93 | 131 | 36 |  |
| COC(=O)c1cccc(C(=O)Nc2nc3cc(OC)ccc3s2)c1 [Compound 03-108] | 94 | 94 | 92 | 52 | 100 | 85 | 80 | 79 | 100 | 102 | 100 | 169 | 100 | 96 | 123 | 77 |  |
| COC(=O)c1cccc(C(=O)Nc2nc3ccc(F)cc3s2)c1 [Compound 03-110] | 70 | 106 | 93 | 86 | 85 | 109 | 62 | 55 | 105 | 96 | 83 | 178 | 93 | 79 | 96 | 66 |  |
